Columns and labels:
human SSAO = human SSAO (Homo sapiens (Human), UniProt Q16853); test: SSAO enzyme inhibition assay; assay type: biochemical; conditions: purified recombinantly expressed human SSAO, benzylamine substrate, RT
Experimental: All primary assays were performed at RT. with purified recombinantly expressed human SSAO. Enzyme was prepared essentially as described in Öhman et al. (Protein Expression and Purification 46 (2006) 321-331). In addition, secondary- and selectivity assays were performed using SSAO prepared from various tissues or purified rat recombinant SSAO. The enzyme activity was assayed with benzylamine as substrate by measuring either benzaldehyde production, using ^14C-labeled substrate, or by utilizing the production of hydrogen peroxide in a horseradish peroxidase (HRP) coupled reaction. Briefly, test compounds were dissolved in dimethyl sulfoxide (DMSO) to a concentration of 10 mM. Dose-response measurements were assayed by either creating 1:10 serial dilutions in DMSO to produce a 7 point curve or by making 1:3 serial dilutions in DMSO to produce 11 point curves. The top concentrations were adjusted depending on the potency of the compounds and subsequent dilution in reaction buffer yielded a final DMSO concentration ≤2%.
In a horseradish peroxidase (HRP) coupled reaction, hydrogen peroxide oxidation of 10-acetyl-3,7-dihydroxyphenoxazine produced resorufin, which is a highly fluorescent compound (Zhout and Panchuk-Voloshina. Analytical Biochemistry 253 (1997) 169-174; Amplex® Red Hydrogen Peroxide/peroxidase Assay kit, Invitrogen A22188). Enzyme and compounds in 50 mM sodium phosphate, pH 7.4 were set to pre-incubate in flat-bottomed microtiter plates for approximately 15 min before initiating the reaction by addition of a mixture of HRP, benzylamine and Amplex reagent. Benzylamine concentration was fixed at a concentration corresponding to the Michaelis constant, determined using standard procedures. Fluorescence intensity was then measured at several time points during 1-2 h, exciting at 544 nm and reading the emission at 590 nm. For the human SSAO assay final concentrations of the reagents in the assay wells were: SSAO enzyme 1 ug/mL, benzylamine 100 uM, Amplex reagent 20 uM, HRP 0.1 U/mL and varying concentrations of test compound. The inhibition was measured as % decrease of the signal compared to a control without inhibitor (only diluted DMSO). The background signal from a sample containing no SSAO enzyme was subtracted from all data points. Data was fitted to a four parameter logistic model and IC50 values were calculated using the GraphPad Prism 4 or XLfit 4 programs.
SSAO activity was assayed using 14C-labeled benzylamine and analysed by measuring radioactive benzaldehyde. In a white 96-well optiplate (Packard), 20 uL of diluted test compound was pre-incubated at RT with 20 uL SSAO enzyme for approximately 15 min with continuous agitation. All dilutions were made with PBS. The reaction was initiated by adding 20 uL of the benzylamine substrate solution containing [7-14C] Benzylamine hydrochloride (CFA589, GE Healthcare). The plate was incubated for 1 h as above after which the reaction was stopped by acidification (10 uL 1M aq HCl). Then 90 uL Micro Scint-E solution (Perkin-Elmer) was added to each well and the plate was continuously mixed for 15 min. Phase separation occurred instantly and activity was read in a Topcount scintillation counter (Perkin-Elmer). In the final reaction well, the human recombinant SSAO concentration was 10 ug/mL. In order to optimize sensitivity, the substrate concentration was decreased as compared to the HRP coupled assay in order to get a higher fraction of radioactive product. In the human SSAO assay, benzylamine concentration was 40 uM (0.2 uCi/mL). Data was analysed as above.

[1] = target: human ether a go-go related gene (hERG) K+ channel (Homo sapiens (Human), UniProt Q12809); test: hERG assay, IonWorks patch clamp electrophysiology; assay type: cell-based; conditions: Chinese Hamster Lung cell line stably expressing hERG, max concentration 11 uM
Experimental: Compounds of the invention were tested for inhibition of the human ether a go-go related gene (hERG) K^+ channel using IonWorks patch clamp electrophysiology. 8 Point concentration-response curves were generated on two occasions using 3-fold serial dilutions from the maximum assay concentration (11 uM). Electrophysiological recordings were made from a Chinese Hamster Lung cell line stably expressing the full length hERG channel. Single cell ion currents were measured in the perforated patch clamp configuration (100 ug/mL amphoterocin) at RT using an IonWorks Quattro instrument. The internal solution contained 140 mM KCl, 1 mM MgCl2, 1 mM EGTA and 20 mM HEPES and was buffered to pH 7.3. The external solution contained 138 mM NaCl, 2.7 mM KCl, 0.9 mM CaCl2, 0.5 mM MgCl2, 8 mM Na2HPO4 and 1.5 mM KH2PO4, and was buffered to pH 7.3. Cells were clamped at a holding potential of […] for 30 s and then stepped to +40 mV for 1 s. This was followed by a hyperpolarising step of 1 s to […] to evoke the hERG tail current. This sequence was repeated 5 times at a frequency of 0.25 Hz. Currents were measured from the tail step at the 5th pulse, and referenced to the holding current. Compounds were incubated for 6-7 min prior to a second measurement of the hERG signal using an identical pulse train. A minimum of 17 cells were required for each pIC50 curve fit. […]

Sequence of human SSAO (Q16853 29-763): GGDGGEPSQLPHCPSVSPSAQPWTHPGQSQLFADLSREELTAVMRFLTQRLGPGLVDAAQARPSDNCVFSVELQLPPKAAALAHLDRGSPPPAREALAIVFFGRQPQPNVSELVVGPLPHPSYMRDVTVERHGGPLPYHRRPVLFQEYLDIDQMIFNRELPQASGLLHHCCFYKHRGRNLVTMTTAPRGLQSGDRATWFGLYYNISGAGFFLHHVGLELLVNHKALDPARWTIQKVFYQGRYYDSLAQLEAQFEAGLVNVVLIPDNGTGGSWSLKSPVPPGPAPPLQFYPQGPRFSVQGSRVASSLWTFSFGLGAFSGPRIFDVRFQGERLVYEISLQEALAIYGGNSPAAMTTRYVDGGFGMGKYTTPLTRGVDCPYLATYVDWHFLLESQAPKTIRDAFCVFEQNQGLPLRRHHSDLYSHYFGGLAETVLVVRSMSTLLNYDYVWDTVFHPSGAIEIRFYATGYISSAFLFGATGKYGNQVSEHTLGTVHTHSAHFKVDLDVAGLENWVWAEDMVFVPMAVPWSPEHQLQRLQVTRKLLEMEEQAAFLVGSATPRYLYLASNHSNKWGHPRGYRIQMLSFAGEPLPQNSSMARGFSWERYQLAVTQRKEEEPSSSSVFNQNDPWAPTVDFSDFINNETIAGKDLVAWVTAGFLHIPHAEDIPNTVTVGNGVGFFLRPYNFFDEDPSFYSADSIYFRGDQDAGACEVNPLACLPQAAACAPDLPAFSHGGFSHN
Sequence of human ether a go-go related gene (hERG) K+ channel (Q12809 whole entry): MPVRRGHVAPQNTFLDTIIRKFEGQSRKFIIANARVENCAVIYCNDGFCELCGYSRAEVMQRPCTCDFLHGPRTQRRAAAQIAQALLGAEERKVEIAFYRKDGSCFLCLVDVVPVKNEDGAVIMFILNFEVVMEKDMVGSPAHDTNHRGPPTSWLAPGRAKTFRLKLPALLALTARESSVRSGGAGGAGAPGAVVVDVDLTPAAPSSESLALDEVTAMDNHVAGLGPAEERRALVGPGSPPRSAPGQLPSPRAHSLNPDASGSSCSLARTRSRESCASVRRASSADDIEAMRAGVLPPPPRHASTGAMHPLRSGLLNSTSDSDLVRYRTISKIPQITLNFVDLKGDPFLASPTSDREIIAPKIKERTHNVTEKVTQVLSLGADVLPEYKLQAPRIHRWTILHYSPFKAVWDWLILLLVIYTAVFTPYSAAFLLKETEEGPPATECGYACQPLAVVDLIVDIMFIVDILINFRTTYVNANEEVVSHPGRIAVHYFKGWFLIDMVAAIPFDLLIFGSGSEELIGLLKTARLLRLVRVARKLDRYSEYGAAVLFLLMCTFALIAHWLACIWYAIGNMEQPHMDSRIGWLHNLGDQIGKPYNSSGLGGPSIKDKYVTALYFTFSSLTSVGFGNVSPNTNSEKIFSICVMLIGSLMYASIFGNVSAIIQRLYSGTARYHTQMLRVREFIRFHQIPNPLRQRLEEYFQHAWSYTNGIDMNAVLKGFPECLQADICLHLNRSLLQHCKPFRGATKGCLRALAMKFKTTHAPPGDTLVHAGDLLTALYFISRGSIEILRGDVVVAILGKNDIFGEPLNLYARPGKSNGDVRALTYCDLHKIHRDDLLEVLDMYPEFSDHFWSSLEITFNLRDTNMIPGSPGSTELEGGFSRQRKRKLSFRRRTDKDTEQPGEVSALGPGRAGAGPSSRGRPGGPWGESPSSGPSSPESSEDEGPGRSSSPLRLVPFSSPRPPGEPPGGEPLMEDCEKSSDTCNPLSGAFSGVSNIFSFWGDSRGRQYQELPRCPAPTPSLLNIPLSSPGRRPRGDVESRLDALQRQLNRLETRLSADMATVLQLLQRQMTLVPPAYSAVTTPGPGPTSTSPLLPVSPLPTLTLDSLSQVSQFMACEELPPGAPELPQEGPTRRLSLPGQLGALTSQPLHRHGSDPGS

Compound	IC50 (human SSAO)	IC50 [1]
Cc1ccc(-n2c(-c3cnc(NCC(C)(C)O)nc3)nc3ccncc32)cc1 [Example 4, 2-Methyl-1-({5-[3-(4-methylphenyl)-3H-imidazo[4,5-c]pyridin-2-yl]pyrimidin-2-yl}amino)propan-2-ol]	< 0.05 µM	
Clc1ccc(-n2c(C3CCN(c4ccncc4)CC3)nc3ccncc32)cc1 [Example 5, 4-{4-[3-(4-Chlorophenyl)-3H-imidazo[4,5-c]pyridin-2-yl]piperidin-1-yl}pyridine; bis(formic acid)]	< 0.05 µM	0.01 to 1 µM
O=c1cc(N2CCC(c3nc4ccncc4n3-c3ccc(Cl)cc3)CC2)nc[nH]1 [Example 6, 6-{4-[3-(4-Chlorophenyl)-3H-imidazo[4,5-c]pyridin-2-yl]piperidin-1-yl}-3,4-dihydropyrimidin-4-one]	0.2 to 0.5 µM	
Clc1ccc(-n2c(Cc3cccnc3)nc3ccncc32)cc1 [Example 7, 3-{[3-(4-Chlorophenyl)-3H-imidazo[4,5-c]pyridin-2-yl]methyl}pyridine; bis(formic acid)]	0.2 to 0.5 µM	
O=C(NCC1CCOCC1)c1nc2ccncc2n1-c1ccc(F)cc1 [Example 9, 3-(4-Fluorophenyl)-N-(oxan-4-ylmethyl)-3H-imidazo[4,5-c]pyridine-2-carboxamide]	0.2 to 0.5 µM	

Further lines, with some results ahead:

IC50 (human SSAO)	Compound	IC50 [1]
0.05 to 0.2 µM	O=C1Cc2cc(-c3nc4ccncc4n3-c3ccc(F)cc3)ccc2N1 [Example 1, 5-[3-(4-Fluorophenyl)-3H-imidazo[4,5-c]pyridin-2-yl]-2,3-dihydro-1H-indol-2-one]	
0.2 to 0.5 µM	Fc1ccc(-n2c(-c3ccc4nc[nH]c4c3)nc3ccncc32)cc1 [Example 2, 5-[3-(4-Fluorophenyl)-3H-imidazo[4,5-c]pyridin-2-yl]-1H-1,3-benzodiazole]	
< 0.05 µM	CC(C)(O)CNc1ncc(-c2nc3ccncc3n2-c2ccc(F)cc2)cn1 [Example 3, 1-({5-[3-(4-Fluorophenyl)-3H-imidazo[4,5-c]pyridin-2-yl]pyrimidin-2-yl}amino)-2-methylpropan-2-ol]	> 10 µM
0.2 to 0.5 µM	Clc1ccc(-n2c(CCCn3ccnc3)nc3ccncc32)cc1 [Example 8, 1-{3-[3-(4-chlorophenyl)-3H-imidazo[4,5-c]pyridin-2-yl]propyl}-1H-imidazole]	

From US11530208B2, “Imidazo[4,5-C]pyridine derived SSAO inhibitors” (PROXIMAGEN, LLC, priority 2014, dated 2022)
